Assay results taken from patent publication US12048678B2, “Compounds for treating myelin related disorders” (Case Western Reserve University, priority 2018, dated 2024).

Assays:
EBP = biological target: T1, EBP (Mus musculus, UniProt P70245); experiment: EBP enzymatic assay; format: biochemical; conditions: 10 μM, FIG. 4a
T1 construct: active EBP was obtained from mouse microsomes; from tissue
T1 sequence (P70245 1-230): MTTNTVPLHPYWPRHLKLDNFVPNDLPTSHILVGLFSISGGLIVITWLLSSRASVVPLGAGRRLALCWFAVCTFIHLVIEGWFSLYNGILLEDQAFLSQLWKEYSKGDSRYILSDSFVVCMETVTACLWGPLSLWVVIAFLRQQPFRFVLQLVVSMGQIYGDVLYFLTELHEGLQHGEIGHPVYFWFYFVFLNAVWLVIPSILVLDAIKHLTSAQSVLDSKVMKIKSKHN
Procedure: EBP enzymatic activity was measured using a reported method with slight modifications: active EBP was obtained from mouse microsomes, inhibitors were added, zymostenol was added at a final concentration of 25 μM in a final reaction volume of 500 μl, and the reaction incubated at 37° C. for 2 h. Sterols were extracted using 3×1 ml hexanes, cholesterol-d7 was added to enable quantitation, and the pooled organics were dried (Na2SO4) and evaporated under nitrogen gas. Samples were then silylated and analyzed using GC/MS as described above.

kappa opioid receptor = kappa opioid receptor (Homo sapiens, UniProt P41145); experiment: k-Opioid receptor agonism assay (Tango  U2OS cells); format: cell-based; conditions: Compound 1 at 1 μM, TASIN-1 100 nM, U50488 2 μM
Sequence of kappa opioid receptor (P41145 whole entry): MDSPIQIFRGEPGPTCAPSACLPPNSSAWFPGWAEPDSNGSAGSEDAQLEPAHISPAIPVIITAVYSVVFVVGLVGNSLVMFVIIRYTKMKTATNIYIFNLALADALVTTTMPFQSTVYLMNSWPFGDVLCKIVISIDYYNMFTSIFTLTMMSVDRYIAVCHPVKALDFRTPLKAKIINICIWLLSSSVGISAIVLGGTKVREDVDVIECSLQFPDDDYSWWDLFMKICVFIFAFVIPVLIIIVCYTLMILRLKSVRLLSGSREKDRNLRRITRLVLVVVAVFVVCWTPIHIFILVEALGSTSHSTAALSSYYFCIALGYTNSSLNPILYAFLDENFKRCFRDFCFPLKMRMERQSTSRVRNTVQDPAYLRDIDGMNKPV

[1] = biological target: T2, estrogen receptor (T47D cells) (Homo sapiens, UniProt P03372); experiment: Estrogen-dependent cell proliferation assay; format: cell-based; conditions: Compound 1 at 1 μM, TASIN-1 100 nM
T2 construct: estrogen dependent growth of T47D cells; endogenous in cells; host or cells: T47D
T2 sequence (P03372 1-595): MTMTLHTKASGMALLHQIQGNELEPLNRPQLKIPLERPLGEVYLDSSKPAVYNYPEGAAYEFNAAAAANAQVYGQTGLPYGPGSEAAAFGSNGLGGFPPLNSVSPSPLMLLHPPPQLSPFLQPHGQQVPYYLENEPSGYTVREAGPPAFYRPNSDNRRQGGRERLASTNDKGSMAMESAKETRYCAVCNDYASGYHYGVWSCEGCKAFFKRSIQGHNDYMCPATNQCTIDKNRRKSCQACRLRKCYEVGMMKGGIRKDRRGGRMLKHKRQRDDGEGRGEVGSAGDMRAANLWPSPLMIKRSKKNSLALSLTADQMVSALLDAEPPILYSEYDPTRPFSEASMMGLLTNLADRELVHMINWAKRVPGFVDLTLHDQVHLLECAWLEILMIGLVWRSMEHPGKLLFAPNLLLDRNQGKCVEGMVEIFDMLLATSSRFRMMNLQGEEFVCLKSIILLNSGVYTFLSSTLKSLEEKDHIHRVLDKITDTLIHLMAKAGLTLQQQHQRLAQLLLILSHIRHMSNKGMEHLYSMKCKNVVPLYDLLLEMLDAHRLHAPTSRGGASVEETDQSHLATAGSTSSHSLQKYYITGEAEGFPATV

[2] = system: cholesterol biosynthesis in OPCs (CYP51, TM7SF2, EBP); experiment: GC/MS-based sterol profiling in OPCs; format: cell-based, mouse; conditions: range of doses, GC-MS sterol profiling, FIG. 3f
Procedure: EpiSC-derived OPCs were plated at 0.5 million cells per ml in PDL- and laminin-coated six or twelve well plate with differentiation media. After 24 hours, cells were dissociated with Accutase, rinsed with saline, and cell pellets were frozen. For sterol analyses, cells were lysed in methanol (Sigma-Aldrich) with agitation for 30 minutes and cell debris removed by centrifugation at 10,000 rpm for 15 min. Cholesterol-d7 standard (25,26,26,26,27,27,27-^2H7-cholesterol, Cambridge Isotope Laboratories) was added before drying under nitrogen stream and derivatization with 55 μl of bis(trimethylsilyl)trifluoroacetamide/trimethylchlorosilane to form trimethylsilyl derivatives. Following derivatization at 60° C. for 20 minutes, 1 μl was analyzed by gas chromatography/mass spectrometry using an Agilent 5973 Network Mass Selective Detector equipped with a 6890 gas chromatograph system and a HP-5MS capillary column ([…]). Samples were injected in splitless mode and analyzed using electron impact ionization. Ion fragment peaks were integrated to calculate sterol abundance, and quantitation was relative to cholesterol-d7. The following m/z ion fragments were used to quantitate each metabolite: cholesterol-d7 (465), FF-Mas (482), cholesterol (368), zymostenol (458), zymosterol (456), desmosterol (456, 343), 7-dehydrocholesterol (456, 325), lanosterol (393), lathosterol (458), 14-dehydrozymostenol (456). Calibration curves were generated by injecting varying concentrations of sterol standards and maintaining a fixed amount of cholesterol-D7. The human glioma cell line GBM528 was a gift of Jeremy Rich (Cleveland Clinic). Human cortical spheroids were generated as described previously.

M1 muscarinic receptor = biological target: T3, M1 muscarinic receptor (Homo sapiens, UniProt P11229); experiment: Muscarinic receptor antagonism assay (GeneBLAzer M1-NFAT-bla CHO-K1 cells); format: cell-based; conditions: Compound 1 at 1 μM, TASIN-1 100 nM; concentration maximally effective for oligodendrocyte formation
T3 sequence (P11229 1-460): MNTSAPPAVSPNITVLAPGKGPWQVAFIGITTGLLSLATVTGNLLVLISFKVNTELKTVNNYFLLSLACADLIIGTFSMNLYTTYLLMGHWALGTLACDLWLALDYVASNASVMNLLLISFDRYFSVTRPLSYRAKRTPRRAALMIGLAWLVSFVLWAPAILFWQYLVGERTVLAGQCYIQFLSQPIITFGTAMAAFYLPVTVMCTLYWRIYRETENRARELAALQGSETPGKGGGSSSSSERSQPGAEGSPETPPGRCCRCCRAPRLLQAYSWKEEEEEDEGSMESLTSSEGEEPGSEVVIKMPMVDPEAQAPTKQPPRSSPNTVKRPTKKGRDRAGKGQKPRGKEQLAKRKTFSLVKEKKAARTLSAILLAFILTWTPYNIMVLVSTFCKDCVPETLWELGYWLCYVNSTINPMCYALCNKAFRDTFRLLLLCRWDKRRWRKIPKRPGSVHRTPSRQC

EBP inhibition in an in vitro enzymatic assay (EBP): enhanced potency for EBP inhibition | effect in cell-based assay for the kappa opioid receptor (kappa opioid receptor): little affinity | effect in cell-based assay for the estrogen receptor (estrogen dependent growth of T47D cells) [1]: little affinity | effect in cell-based assay for the M1 muscarinic receptor (M1 muscarinic receptor): little affinity
Compound: c1ccc(-c2ccc(CN3CCCCCCC3)cc2)cc1 [Compound 1]
EBP inhibition in OPCs (zymostenol) [2]: enhanced potency for EBP inhibition
